Converted amounts (≈) assume the structure as drawn. Where two headings read alike, the source gives them in different places.
Key:
[1] = system: Klebsiella pneumoniae; test: Agar-plate diffusion assay, K. pneumoniae; type: cell-based; settings: for Antibacterial Activity Gram-Negative K. pneumoniae Clear Inhibition Zone: at the MID, disk diameter 6 mm; for Antibacterial Activity Gram-Negative K. pneumoniae MID: minimum dose that induced an obvious inhibition zone (1–1.5 mm), 6 mm disk
Procedure: (§1) Staphylococcus aureus ATCC 6538 and Klebsiella pneumoniae were used for biological evaluation. Concentrations assayed ranged from 0.08 to 1.25 µg/disks. DMSO was used to dissolve the compounds, while vancomycin and oxacillin were used as positive controls for Staphylococcus aureus and gentamycin was used as a positive control for Klebsiella pneumoniae. The minimum inhibitory dose (MID, μg/disk) was defined as the minimum dose that induced an obvious inhibition zone (1–1.5 mm). The disk diameter was 6 mm.

[2] = system: Staphylococcus aureus ATCC 6538; test: Agar-plate diffusion assay, S. aureus; type: cell-based; settings: for Antibacterial Activity Gram-Positive S. aureus Clear Inhibition Zone: at the MID, disk diameter 6 mm; for Antibacterial Activity Gram-Positive S. aureus MID: minimum dose that induced an obvious inhibition zone (1–1.5 mm), 6 mm disk
Procedure: as §1

[3] = system: human embryonic kidney (HEK293T) cells; test: In vitro cytotoxicity assay (MTT); type: cell-based
Procedure: (§2) In vitro cytotoxicity was determined against human embryonic kidney (HEK293T) cells. The assay was performed in 96-well treated tissue culture plates. Cells were seeded in the wells (5000 cells in 100 µL media containing RPMI1640, FBS, penicillin and streptomycin) and incubated for 24 h. Samples were then added and plates were again incubated for 48 h. MTT was then added and the plates were incubated for 4 h at 37 °C. Formazan crystals formed were dissolved in EtOH and absorbances were read at λ = 595 nm. The result was analyzed by using Prism 9 software (Graphpad, San Diego, CA, USA) to obtain IC50 values.

[4] = In vitro cytotoxicity assay (MTT); type: cell-based, human; settings: human
Procedure: as §2

[5] = system: Candida albicans; set-up: method as in PMID 27399938; settings: cited from earlier work
[6] = system: Enterococcus faecium; set-up: method as in PMID 27399938; settings: cited from earlier work
[7] = system: Escherichia coli; set-up: method as in PMID 27399938; settings: cited from earlier work
[8] = system: Pseudomonas aeruginosa; set-up: method as in PMID 27399938; settings: cited from earlier work
[9] = system: Bsc-1 cells; set-up: method as in PMID 27399938; settings: cited from earlier work
[10] = system: Staphylococcus aureus; set-up: method as in PMID 27399938; settings: cited from earlier work
[11] = Homo sapiens, HEK-293T, HEK293T cells, methylation and acetylation products, read-out: IC50 against HEK293T
[12] = HEK293T cells, MTT, 48 h, read-out: Cytotoxicity HEK293T IC50

Compound	Antibacterial Activity Gram-Negative K. pneumoniae Clear Inhibition Zone [1] [mm]	Antibacterial Activity Gram-Negative K. pneumoniae MID [1] [µg/Disk]	Antibacterial Activity Gram-Positive S. aureus Clear Inhibition Zone [2] [mm]	Antibacterial Activity Gram-Positive S. aureus MID [2] [µg/Disk]	IC50 [3, 11] [µg/mL]	other results
Cc1onc(-c2ccccc2)c1C(=O)N[C@@H]1C(=O)N2[C@@H]1SC(C)(C)[C@@H]2C(=O)O [Oxacillin]	7.33 ± 0.24	0.078	11.33 ± 0.24	< 0.078		
COc1c(Br)cc(Br)cc1Oc1c(Br)c(Br)c(Br)c(Br)c1OC [Compound 8, 2,3,4,5-tetrabromo-6-(3′,5′-dibromo-2′-methoxyphenoxy) anisole]					> 10	
CC(=O)Oc1c(Br)c(Br)c(Br)c(Br)c1Oc1cc(Br)cc(Br)c1O [Compound 10, 2,3,4,5-tetrabromo-6-(3′,5′-dibromo-2′-hydroxyphenoxy) phenyl acetate]					> 10	
Oc1c(Br)cc(Br)cc1Oc1c(O)c(Br)c(Br)c(Br)c1Br [Compound 1, 2,3,4,5-tetrabromo-6-(3′, 5′-dibromo-2′-hydroxyphenoxy) phenol]	7.00 ± 0.00	0.078	7.17 ± 0.24	0.078		IC50 at 48 h ([4]; Cytotoxicity HEK293T IC50): 16.2 ± 1.17 µM
CN[C@H](CC(C)C)C(=O)N[C@H]1C(=O)N[C@@H](CC(N)=O)C(=O)N[C@H]2C(=O)N[C@H]3C(=O)N[C@H](C(=O)N[C@H](C(=O)O)c4cc(O)cc(O)c4-c4cc3ccc4O)[C@H](O)c3ccc(c(Cl)c3)Oc3cc2cc(c3O[C@@H]2O[C@H](CO)[C@@H](O)[C@H](O)[C@H]2O[C@H]2C[C@](C)(N)[C@H](O)[C@H](C)O2)Oc2ccc(cc2Cl)[C@H]1O [Vancomycin]	7.33 ± 0.24	0.078	7.00 ± 0.00	0.078		
CC(=O)Oc1c(Br)cc(Br)cc1Oc1c(Br)c(Br)c(Br)c(Br)c1OC(C)=O [Compound 11, 2,3,4,5-tetrabromo-6-(3′,5′-dibromo-2′-acetoxyphenoxy) phenyl acetate]					> 10	
Oc1cc(Br)cc(Br)c1Oc1cc(Br)cc(Br)c1O [Compound 16, 3,5-dibromo-6-(3′, 5′-dibromo-2′-hydroxyphenoxy) phenol]	7.50 ± 0.00	0.078	7.00 ± 0.00	0.078		MIC Candida albicans [5]: > 50 µg/mL; IC50 at 48 h ([4]; Cytotoxicity HEK293T IC50): 8.65 ± 1.11 µM; IC50 ([3]; human, 48 h): 8.11 µM; MIC Enterococcus faecium [6]: 1.6 to 3.1 µg/mL; MIC Escherichia coli [7]: 50 µg/mL (≈ 96.6 µM); MIC Pseudomonas aeruginosa [8]: > 50 µg/mL; IC50 against Bsc-1 cells [9]: > 50 µg/mL; MIC Staphylococcus aureus [10]: 1.25 to 1.6 µg/mL
CC(=O)Oc1c(Br)cc(Br)cc1Oc1c(Br)cc(Br)c(Br)c1OC(C)=O [Compound 13, 2,3,5-tribromo-6-(3′,5′-dibromo-2′-acetoxyphenoxy) phenyl acetate]					> 10	
Gentamycin	7.33 ± 0.47	0.078	7.67 ± 0.47	0.078		
CC(=O)Oc1c(Br)c(Br)cc(Br)c1Oc1cc(Br)cc(Br)c1O [Compound 12, 2,3,5-tribromo-6-(3′, 5′-dibromo-2′-hydroxyphenoxy) phenyl acetate]					> 10	
Oc1ccccc1Oc1ccccc1O [Compound 30, 2, 2′-oxydiphenol, reference compound]						IC50 at 48 h [4, 12]: > 198 µM
COc1c(Br)cc(Br)cc1Oc1c(Br)cc(Br)c(Br)c1OC [Compound 9, 2,3,5-tribromo-6-(3′,5′-dibromo-2′-methoxyphenoxy) anisole]					> 10	
COc1c(Br)c(Br)c(Br)c(Br)c1Oc1cc(Br)cc(Br)c1O [Compound 7]					> 10	
COc1cccc2c1C(=O)c1c(O)c3c(c(O)c1C2=O)C[C@@](O)(C(=O)CO)C[C@@H]3O[C@H]1C[C@H](N)[C@H](O)[C@H](C)O1 [Doxorubicin, reference compound]						IC50 at 48 h [4, 12]: 0.22 ± 0.09 µM

From paper PMC8588277, “Oxy-Polybrominated Diphenyl Ethers from the Indonesian Marine Sponge, Lamellodysidea herbacea: X-ray, SAR, and Computational Studies” (Molecules, 2021)
